Where two headings read alike, the source gives them in different places.
What was measured:
Assay type in all cases: cell-based
human TLR7 = biological target: T1, human TLR7 (Homo sapiens, UniProt Q9NYK1); assay: TLR7 inhibition reporter assay (HEK-Blue cells, secreted embryonic alkaline phosphatase reporter); conditions: HEK-Blue cells overexpressing human TLR7, stimulated with gardiquimod 7.5 μM; read-out: TLR 7 IC50
T1 construct: host or cells: HEK-Blue cells (HEK293-derived reporter line)
T1 sequence (Q9NYK1 27-1049): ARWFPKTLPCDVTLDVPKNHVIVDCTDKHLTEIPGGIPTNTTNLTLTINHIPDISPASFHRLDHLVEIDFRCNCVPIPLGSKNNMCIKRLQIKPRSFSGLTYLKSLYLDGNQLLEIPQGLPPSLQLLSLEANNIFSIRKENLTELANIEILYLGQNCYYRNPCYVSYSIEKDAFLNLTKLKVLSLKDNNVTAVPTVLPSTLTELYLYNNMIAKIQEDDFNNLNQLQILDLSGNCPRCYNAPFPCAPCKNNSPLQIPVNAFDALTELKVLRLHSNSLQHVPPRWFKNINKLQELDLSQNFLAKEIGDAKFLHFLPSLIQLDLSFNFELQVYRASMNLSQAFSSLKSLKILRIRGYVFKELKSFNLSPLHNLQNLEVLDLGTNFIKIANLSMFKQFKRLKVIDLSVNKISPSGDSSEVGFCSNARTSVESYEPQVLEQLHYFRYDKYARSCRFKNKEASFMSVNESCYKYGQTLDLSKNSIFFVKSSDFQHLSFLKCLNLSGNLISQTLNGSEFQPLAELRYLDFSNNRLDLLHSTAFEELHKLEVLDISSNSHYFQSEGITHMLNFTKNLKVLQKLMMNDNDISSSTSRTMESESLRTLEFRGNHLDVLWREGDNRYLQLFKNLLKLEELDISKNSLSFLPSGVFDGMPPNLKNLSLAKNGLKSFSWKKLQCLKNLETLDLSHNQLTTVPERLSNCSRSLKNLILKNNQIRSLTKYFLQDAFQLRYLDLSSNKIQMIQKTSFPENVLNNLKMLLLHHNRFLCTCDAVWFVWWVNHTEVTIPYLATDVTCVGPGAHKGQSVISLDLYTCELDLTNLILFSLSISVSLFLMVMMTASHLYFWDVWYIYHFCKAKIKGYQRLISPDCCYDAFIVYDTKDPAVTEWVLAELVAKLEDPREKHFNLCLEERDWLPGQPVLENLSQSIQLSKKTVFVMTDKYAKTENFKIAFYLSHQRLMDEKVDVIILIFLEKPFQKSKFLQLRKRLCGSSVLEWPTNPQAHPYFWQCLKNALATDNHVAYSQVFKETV
Method in brief: (§1)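 Cells seeded at 15000 (TLR7), 20,000 (TLR8) or 25,000 (TLR9) per well; compound 0.05 nM–50 μM, 30 min RT pre-incubation. Agonists: gardiquimod 7.5 μM, R848 15.9 μM, ODN2006 5 nM respectively. 22 h, 37 °C; SEAP via HEK-Blue Detection; % inhibition vs agonist+DMSO and known-inhibitor wells.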

human TLR8 = biological target: T2, human TLR8 (Homo sapiens, UniProt Q9NR97); assay: TLR8 inhibition reporter assay (HEK-Blue cells, secreted embryonic alkaline phosphatase reporter); conditions: HEK-Blue cells overexpressing human TLR8, stimulated with R848 15.9 μM; read-out: TLR 8 IC50
T2 construct: host or cells: HEK-Blue cells (HEK293-derived reporter line)
T2 sequence (Q9NR97 27-1041): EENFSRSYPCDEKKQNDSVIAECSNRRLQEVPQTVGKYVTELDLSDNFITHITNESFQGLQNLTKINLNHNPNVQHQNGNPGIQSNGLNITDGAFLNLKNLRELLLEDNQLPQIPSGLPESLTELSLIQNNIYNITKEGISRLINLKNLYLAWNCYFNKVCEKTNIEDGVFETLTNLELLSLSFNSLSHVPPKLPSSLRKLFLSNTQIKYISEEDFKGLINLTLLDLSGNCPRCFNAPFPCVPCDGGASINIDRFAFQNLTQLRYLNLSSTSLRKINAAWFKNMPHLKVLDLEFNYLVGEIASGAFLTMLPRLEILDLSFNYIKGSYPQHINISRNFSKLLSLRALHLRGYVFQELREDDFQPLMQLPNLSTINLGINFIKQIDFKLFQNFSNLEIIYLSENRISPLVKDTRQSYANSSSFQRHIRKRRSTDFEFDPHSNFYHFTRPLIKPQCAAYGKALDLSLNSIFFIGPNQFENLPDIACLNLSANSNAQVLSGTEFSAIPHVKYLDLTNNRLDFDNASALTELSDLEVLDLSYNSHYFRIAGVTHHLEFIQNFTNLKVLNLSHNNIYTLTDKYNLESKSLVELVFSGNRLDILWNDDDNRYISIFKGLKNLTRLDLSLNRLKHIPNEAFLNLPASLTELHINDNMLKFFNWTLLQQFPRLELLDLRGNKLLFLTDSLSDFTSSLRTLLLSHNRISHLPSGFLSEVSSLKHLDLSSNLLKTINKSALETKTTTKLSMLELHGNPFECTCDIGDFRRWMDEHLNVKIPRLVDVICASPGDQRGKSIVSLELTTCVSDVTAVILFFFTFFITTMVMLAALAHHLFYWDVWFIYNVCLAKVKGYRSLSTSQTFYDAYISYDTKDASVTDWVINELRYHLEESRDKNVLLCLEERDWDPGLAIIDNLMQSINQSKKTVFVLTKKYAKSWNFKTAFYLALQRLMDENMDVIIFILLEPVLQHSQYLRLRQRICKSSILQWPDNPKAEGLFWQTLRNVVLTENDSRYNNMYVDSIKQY
Method in brief: as §1

human TLR9 = biological target: T3, human TLR9 (Homo sapiens, UniProt Q9NR96); assay: TLR9 inhibition reporter assay (HEK-Blue cells, secreted embryonic alkaline phosphatase reporter)
T3 construct: host or cells: HEK-Blue cells (HEK293-derived reporter line)
T3 sequence (Q9NR96 26-1032): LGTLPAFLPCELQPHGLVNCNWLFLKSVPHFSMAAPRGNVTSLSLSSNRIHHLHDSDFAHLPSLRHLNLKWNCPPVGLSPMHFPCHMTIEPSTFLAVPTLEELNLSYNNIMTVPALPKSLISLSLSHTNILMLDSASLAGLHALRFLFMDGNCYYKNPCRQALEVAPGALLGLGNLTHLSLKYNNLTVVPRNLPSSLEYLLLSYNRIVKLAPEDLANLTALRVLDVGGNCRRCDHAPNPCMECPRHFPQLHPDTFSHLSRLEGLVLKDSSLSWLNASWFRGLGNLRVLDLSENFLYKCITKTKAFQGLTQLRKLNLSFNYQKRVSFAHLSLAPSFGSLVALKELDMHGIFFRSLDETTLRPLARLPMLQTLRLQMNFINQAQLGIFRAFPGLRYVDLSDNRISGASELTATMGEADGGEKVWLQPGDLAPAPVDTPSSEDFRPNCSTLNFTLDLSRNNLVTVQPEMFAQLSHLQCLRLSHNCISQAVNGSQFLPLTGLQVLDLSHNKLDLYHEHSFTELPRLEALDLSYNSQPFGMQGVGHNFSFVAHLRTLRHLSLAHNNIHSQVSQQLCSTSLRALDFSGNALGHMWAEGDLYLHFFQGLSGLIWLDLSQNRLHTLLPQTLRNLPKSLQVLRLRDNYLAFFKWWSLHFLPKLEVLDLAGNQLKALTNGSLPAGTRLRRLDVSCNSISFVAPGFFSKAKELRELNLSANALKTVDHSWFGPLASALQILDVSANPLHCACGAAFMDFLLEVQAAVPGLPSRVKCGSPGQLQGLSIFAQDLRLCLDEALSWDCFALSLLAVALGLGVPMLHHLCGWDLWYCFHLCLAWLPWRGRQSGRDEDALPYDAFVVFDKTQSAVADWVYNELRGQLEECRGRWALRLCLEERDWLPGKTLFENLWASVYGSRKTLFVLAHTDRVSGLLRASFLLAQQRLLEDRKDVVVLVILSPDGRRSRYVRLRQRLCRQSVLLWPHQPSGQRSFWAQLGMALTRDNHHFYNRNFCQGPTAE
Method in brief: as §1

[1] = HEK-Blue cells overexpressing human TLR9, stimulated with ODN2006 5 nM, read-out: TLR 9 IC50
[2] = HEK-Blue cells overexpressing human TLR9, stimulated with ODN2006 5 nM, 22 hour incubation, reporter readout
[3] = HEK-Blue human TLR9 reporter cells

| SMILES | IC50 (human TLR7) [nM] | IC50 (human TLR8) [nM] | IC50 (human TLR9) [nM] | IC50 (human TLR9; [1]) [nM] | IC50 (human TLR9; [2]) [nM] | IC50 (human TLR9; [3]) [nM] |
| --- | --- | --- | --- | --- | --- | --- |
| Cn1c(-c2ccc(S(C)(=O)=O)cc2)nc2c(F)c(C3CCN(C4CC5CCC(C4)N5CC4CC4)CC3)ccc21 (single isomer, unassigned) [Example 192, 5-(1-(8-(cyclopropylmethyl)-8-azabicyclo[3.2.1]octan-3-yl)piperidin-4-yl)-4-fluoro-1-methyl-2-(4-(methylsulfonyl)phenyl)-1H-benzo[d]imidazole] | > 50000 | > 50000 | 190 | 186 | – | – |
| Cc1cc(-c2ccc(CN3CCC(N(C)C)CC3)c(F)c2)cc2c1nc(-c1ccc(S(C)(=O)=O)cc1)n2C [Example 390, 1-(4-(1,4-dimethyl-2-(4-(methylsulfonyl)phenyl)-1H-benzo[d]imidazol-6-yl)-2-fluorobenzyl)-N,N-dimethylpiperidin-4-amine] | 4200 | 10200 | – | 91 | 91 | – |
| CC(C)N1CCCC(N2CCC(c3cc(F)c4nc(-c5ccc(S(C)(=O)=O)cc5)n(C)c4c3)CC2)CC1 (single isomer, unassigned) [Example 295, 4-fluoro-6-(1-(1-isopropylazepan-4-yl)piperidin-4-yl)-1-methyl-2-(4-(methylsulfonyl)phenyl)-1H-benzo[d]imidazole] | 700 | > 50000 | – | 24 | – | 24 |
| CC(C)N1C2CCC1CC(N1CCC(c3ccc4nc(-c5ccc(S(C)(=O)=O)cc5)n(C)c4c3F)CC1)C2 (single isomer, unassigned) [Example 104, 7-fluoro-6-(1-(8-isopropyl-8-azabicyclo[3.2.1]octan-3-yl)piperidin-4-yl)-1-methyl-2-(4-(methylsulfonyl)phenyl)-1H-benzo[d]imidazole] | 39200 | > 50000 | – | – | 140 | – |
| CC(C)CN1CCC(N2CCC(c3ccc4c(nc(-c5ccc(S(C)(=O)=O)cc5)n4C)c3F)CC2)CC1 [Example 184, 4-fluoro-5-(1′-isobutyl-[1,4′-bipiperidin]-4-yl)-1-methyl-2-(4-(methylsulfonyl)phenyl)-1H-benzo[d]imidazole] | > 50000 | > 50000 | 850 | 850 | – | – |
| Cc1cc(C2CCN(C3CCN(C(C)C)CC3)CC2)cc2c1nc(-c1ccc(S(N)(=O)=O)cc1)n2C [Example 112, 4-(6-(1′-isopropyl-[1,4′-bipiperidin]-4-yl)-1,4-dimethyl-1H-benzo[d]imidazol-2-yl)benzenesulfonamide] | > 50000 | > 50000 | – | 127 | 130 | – |
| Cc1cc(-c2ccc(N3CCC(N4CCCC4)CC3)cc2)cc2c1nc(-c1ccc(S(C)(=O)=O)cc1)n2C [Example 367, 1,4-dimethyl-2-(4-(methylsulfonyl)phenyl)-6-(4-(4-(pyrrolidin-1-yl)piperidin-1-yl)phenyl)-1H-benzo[d]imidazole] | 2300 | 1900 | – | 508 | 510 | – |
| Cc1cc(C2CCN(C3CCN(CC(C)C)CC3)CC2)cc2c1nc(-c1ccc(S(C)(=O)=O)c(F)c1)n2C [Example 343, 2-(3-fluoro-4-(methylsulfonyl)phenyl)-6-(1′-isobutyl-[1,4′-bipiperidin]-4-yl)-1,4-dimethyl-1H-benzo[d]imidazole] | 12600 | > 25000 | – | 156 | – | 160 |
| COc1ccc(-c2nc3ccc(C4CCN(C5CCN(C(C)C)CC5)CC4)cc3[nH]2)cc1OC [Example 2, 2-(3,4-dimethoxyphenyl)-6-(1′-isopropyl-[1,4′-bipiperidin]-4-yl)-1H-benzo[d]imidazole] | 16000 | > 50000 | – | 123 | 120 | – |
| Cc1cc(C2CCN(C3CC4CCC(C3)N4C3CCC3)CC2)cc2c1nc(-c1ccc(S(C)(=O)=O)c(F)c1)n2C (single isomer, unassigned) [Example 124, 6-(1-(8-cyclobutyl-8-azabicyclo[3.2.1]octan-3-yl)piperidin-4-yl)-2-(3-fluoro-4-(methylsulfonyl)phenyl)-1,4-dimethyl-1H-benzo[d]imidazole] | 3100 | > 50000 | – | 577 | 580 | – |
| CC(C)CN1C2CCC1CC(N1CCC(c3ccc4nc(-c5ccc(S(C)(=O)=O)cc5)[nH]c4c3F)CC1)C2 (single isomer, unassigned) [Example 219, 7-fluoro-6-(1-(8-isobutyl-8-azabicyclo[3.2.1]octan-3-yl)piperidin-4-yl)-2-(4-(methylsulfonyl)phenyl)-1H-benzo[d]imidazole] | 18500 | > 50000 | 65 | 65 | – | – |
